# Test results: publication PMC4904373, “Azole Antifungal Sensitivity of Sterol 14α-Demethylase (CYP51) and CYP5218 from Malassezia globosa” (Scientific Reports, 2016)
# Where “and” joins values, the source holds several entries; their conditions need not be identical. Identical values can stand only once. Like-named read-outs stand apart in the source and are kept apart here.
# How the values were obtained:
# M. globosa [1] = tested on: M. globosa
# Candida maltosa CYP52A4 = tested on: Candida maltosa CYP52A4; design: method as in PMID 8645001; conditions: cited from earlier work
# M. globosa CYP5218 [2] = molecular target: T1, M. globosa CYP5218 (Malassezia globosa, UniProt A8QCD3, A3L/A5L/F6A/I7V/S4L/S8F); conditions: 100 μM fatty acid, 1 hour to overnight (~16 h), three different cytochrome P450 reductase redox partners
# Experimental: The CYP5218 fatty acid reconstitution assay system used was based on that previously described by Guengerich[54] and contained 200 nM of CYP5218, 500 nM of cytochrome P450 reductase (A. fumigatus CPR1[52]) or H. sapiens CPR[55] or C. albicans CPR[56], 50 μM DLPC, 100 μM fatty acid (lauric acid, myristic acid, palmitic acid, palmitoleic acid, oleic acid and linoleic acid), 4 mM glucose-6-phosphate, 3 U/ml yeast glucose-6-phosphate dehydrogenase in a final volume of 500 μl with 0.1 M potassium phosphate (pH 7.4). Assay mixtures were incubated at 37 °C for 5 min prior to initiation with 4 mM β-NADPHNa4 and then incubated for a further 60 min or overnight (~16 h) at 37 °C. Fatty acid metabolites were recovered by extraction with dichloromethane and dried in a vacuum centrifuge. Samples were derivatized with 200 μl anhydrous pyridine and 250 μl BSTFA:TMCS (99:1) (30 min at 80 °C) and extracted with 500 μl of hexane, prior to analysis by GC/MS (Thermo GC Trace 1300 and ISQ MS). GC analysis was performed with a 5% phenyl methylpolysiloxane column (DB5) (Agilent Technologies). The oven programme was as follows: initial: 70 °C, with 3 min hold; ramp: 10 °C min^−1 to 180 °C (held for 2 min), 10 °C min^−1 to 250 °C (held for 2 min) and 10 °C min^−1 to 280 °C (held for 2 min). Data were analyzed using Thermo Xcalibur 2.2 software.
# M. globosa CYP5218 [3] = molecular target: T1, M. globosa CYP5218; experiment: biochemical; assay type: binding; conditions: 4 μM CYP5218, type I spectra, mean of three replicates with SD
# Experimental: Reduced carbon monoxide difference spectroscopy[46][47] and absolute spectra between 700 and 300 nm were used to determine cytochrome P450 concentrations. Substrate and azole binding studies were performed[31][48] using 2.5 mM stock sterol solutions in 40% (wt/vol) (2-hydroxypropyl)-β-cyclodextrin (HPCD), 4 mg ml^−1 solutions of fatty acids in dimethylformamide (DMF), and stock 0.05, 0.1 and 0.2 mg ml^−1 solutions of azole antifungal agents in dimethylsulfoxide (DMSO). Sterols were titrated against 5 μM CYP51, fatty acids were titrated against 4 μM CYP5218 and azole antifungal agents were titrated against 2 μM CYP51 and CYP5218. The absorbance difference spectrum between 500 and 350 nm was determined after each incremental addition of ligand with saturation curves constructed from ΔApeak-trough against ligand concentration. […] The dissociation constants of the enzyme-azole complex were determined by non-linear regression (Levenberg-Marquardt algorithm) using a rearrangement of the Morrison equation for tight ligand binding. ProFit 6.1.12 (QuantumSoft, Zurich, Switzerland) was used for curve-fitting data. All ligand-binding studies were performed at 22 ± 2 °C and in triplicate. All spectral determinations were made using a Hitachi U-3310 UV/VIS spectrophotometer (San Jose, California).
# M. globosa ATCC MYA-4612 = experiment: M. globosa MIC100 determination; assay type: cell-based, Malassezia globosa; conditions: for MIC: Malassezia globosa, 168 h, read-out: MIC100
# Experimental: M. globosa ATCC MYA-4612 was grown for 7 days at 30 °C in modified Dixon medium (3.6% malt extract, 2% desiccated ox-bile, 1% Tween 40, 0.6% peptone, 0.2% glycerol, 0.2% oleic acid, pH adjusted to 6 with HCl) until a culture density of 1.5 × 10^5 cells ml^−1 was obtained. Cells from 3 ml of stock culture were harvested, suspended in 1 ml of saline and used to inoculate 30 ml of fresh modified Dixon medium for use as M. globosa inoculums in MIC determinations. Stock azole concentrations of 1600, 800, 400, 200, 100, 50, 25, 12.5, 6.25, 3.125 and 0 μg ml^−1 were prepared in DMSO. These were diluted ten-fold with fresh modified Dixon media and 20 μl of the diluted azole solutions were then mixed with 180 μl of M. globosa inoculum in microtiter plate wells to yield final azole concentrations of 16, 8, 4, 2, 1, 0.5, 0.25, 0.125, 0.0625, 0.03125 and 0 μg ml^−1. The microtiter plates were incubated at 30 °C for 7 days and then read. Each azole MIC100 determination was performed in triplicate.
# M. globosa [4] = conditions: cited from earlier work
# M. globosa CYP51 [5] = molecular target: T2, M. globosa CYP51 (Malassezia globosa, UniProt A8Q3I7, A7V/E4L/G6A/I5L/L2A/Q3L/W8F); experiment: biochemical; assay type: binding
# Experimental: (§1) Reduced carbon monoxide difference spectroscopy[46][47] and absolute spectra between 700 and 300 nm were used to determine cytochrome P450 concentrations. Substrate and azole binding studies were performed[31][48] using 2.5 mM stock sterol solutions in 40% (wt/vol) (2-hydroxypropyl)-β-cyclodextrin (HPCD), 4 mg ml^−1 solutions of fatty acids in dimethylformamide (DMF), and stock 0.05, 0.1 and 0.2 mg ml^−1 solutions of azole antifungal agents in dimethylsulfoxide (DMSO). Sterols were titrated against 5 μM CYP51, fatty acids were titrated against 4 μM CYP5218 and azole antifungal agents were titrated against 2 μM CYP51 and CYP5218. The absorbance difference spectrum between 500 and 350 nm was determined after each incremental addition of ligand with saturation curves constructed from ΔApeak-trough against ligand concentration. The dissociation constants (Kd) for sterols and fatty acids were determined by non-linear regression (Levenberg-Marquardt algorithm) using the Michaelis-Menten equation. The dissociation constants of the enzyme-azole complex were determined by non-linear regression (Levenberg-Marquardt algorithm) using a rearrangement of the Morrison equation for tight ligand binding. ProFit 6.1.12 (QuantumSoft, Zurich, Switzerland) was used for curve-fitting data. All ligand-binding studies were performed at 22 ± 2 °C and in triplicate. All spectral determinations were made using a Hitachi U-3310 UV/VIS spectrophotometer (San Jose, California).
# M. globosa CYP5218 [6] = molecular target: T1, M. globosa CYP5218; experiment: biochemical; assay type: binding; conditions: for azole binding to CYP5218 (binding spectra): 2 μM CYP5218, result in words
# Experimental: as §1
# M. globosa CYP51 [7] = molecular target: T2, M. globosa CYP51; experiment: biochemical
# Experimental: Sterol metabolites were recovered by extraction with ethyl acetate followed by derivatization with 0.1 ml N,O-bis(trimethylsilyl)trifluoroacetamide (BSTFA) : trimethylchlorosilane (TMCS) (99:1) and 0.3 ml anhydrous pyridine (2 h at 80 °C) prior to analysis by gas chromatography mass spectrometry (GC/MS)[53].
# C. albicans CYP51 = molecular target: C. albicans CYP51; design: method as in PMID 23826084; conditions: cited from earlier work
# M. globosa [8] = experiment: Sterol analysis of azole-treated M. globosa; assay type: cell-based, Malassezia globosa; conditions: 4 μg ml^−1 ketaminazole
# Experimental: Individual sterols were identified by reference to relative retention times, mass ions and fragmentation patterns. Sterol composition was calculated using peak areas.
# H. sapiens CYP51 = molecular target: H. sapiens CYP51; design: method as in PMID 23826084; conditions: cited from earlier work
# [9] = CYP5218 Kd (μM) Michaelis-Menten
# T2 sequence (A8Q3I7 whole entry L2A/Q3L/E4L/I5L/G6A/A7V/W8F): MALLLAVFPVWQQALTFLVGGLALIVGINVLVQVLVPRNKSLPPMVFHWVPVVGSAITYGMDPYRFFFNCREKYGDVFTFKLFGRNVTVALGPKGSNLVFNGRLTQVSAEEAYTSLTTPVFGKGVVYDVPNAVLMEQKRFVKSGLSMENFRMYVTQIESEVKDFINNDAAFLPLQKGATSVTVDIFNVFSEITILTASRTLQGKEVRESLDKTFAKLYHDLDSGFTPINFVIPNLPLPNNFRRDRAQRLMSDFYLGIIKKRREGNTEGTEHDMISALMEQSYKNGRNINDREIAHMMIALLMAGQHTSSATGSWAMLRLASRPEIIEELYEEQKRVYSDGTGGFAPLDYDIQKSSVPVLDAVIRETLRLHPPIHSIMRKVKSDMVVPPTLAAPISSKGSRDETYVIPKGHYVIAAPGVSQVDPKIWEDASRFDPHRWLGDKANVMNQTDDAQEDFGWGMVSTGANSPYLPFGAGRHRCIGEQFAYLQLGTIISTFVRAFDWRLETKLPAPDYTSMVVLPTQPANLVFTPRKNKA
compound,measurement,setting,value
C=CC[C@@H]1/C=C(\C)C[C@H](C)C[C@H](OC)[C@H]2O[C@@](O)(C(=O)C(=O)N3CCCC[C@H]3C(=O)O[C@H](/C(C)=C/[C@@H]3CC[C@@H](O)[C@H](OC)C3)[C@H](C)[C@@H](O)CC1=O)[C@H](C)C[C@@H]2OC [FK-506],concentration above which cytotoxic towards M. globosa,M. globosa [1],above 0.0625 μg ml^−1
"CCCCCCCCCCCC(=O)O [Lauric acid, lauric acid]",Kd,Candida maltosa CYP52A4,~110 µM
same,product formation in CYP5218 reconstitution assay,M. globosa CYP5218 [2],no observed product formation
same,Kd,M. globosa CYP5218 [3]; CYP5218 Kd (μM) Eadie-Hofstee,136 ± 3 µM
same,Kd,M. globosa CYP5218 [3]; [9],136 ± 4 µM
"CCCCCCCCCCCCCC(=O)O [Myristic acid, myristic acid]",Kd,Candida maltosa CYP52A4,~120 µM
same,product formation in CYP5218 reconstitution assay,M. globosa CYP5218 [2],no observed product formation
same,Kd,M. globosa CYP5218 [3]; CYP5218 Kd (μM) Eadie-Hofstee,245 ± 29 µM
same,Kd,M. globosa CYP5218 [3]; [9],195 ± 41 µM
OC(Cn1cncn1)(Cn1cncn1)c1ccc(F)cc1F [fluconazole],MIC,"M. globosa ATCC MYA-4612; modified Dixon medium, 30 °C, 7 days",64 µg/mL
same,MIC values previously reported,M. globosa [4],4 µg/mL
same,Kd,M. globosa CYP51 [5],0.011 ± 0.004 µM
same,azole binding to CYP5218 (binding spectra),M. globosa CYP5218 [6],did not bind
same,azole binding to CYP5218 (binding spectra),M. globosa CYP5218 [6]; listed as Fluconazole,no reproducible binding spectra
same,IC50,"M. globosa CYP51 [7]; IC50, 0.5 μM CYP51, CYP51:AfCPR1 1:2, 50 μM lanosterol as substrate",0.206 µM and 0.2 µM
CC(=O)N1CCN(c2ccc(NCC3COC(Cn4ccnc4)(c4ccc(Cl)cc4Cl)O3)cc2)CC1 (centres unmarked) [ketaminazole],growth inhibition,M. globosa ATCC MYA-4612; 4 μg ml^−1,partial inhibition of growth
same,MIC,M. globosa ATCC MYA-4612,8 µg/mL
same,Kd,C. albicans CYP51,0.043 µM
same,"sterol fraction (%) 4,4-dimethylzymosterol",M. globosa [8],0.62%
same,sterol fraction (%) Eburicol,M. globosa [8],14.63%
same,sterol fraction (%) Episterol,M. globosa [8],0.63%
same,"sterol fraction (%) Ergosta-5,7-dienol",M. globosa [8],13.85%
same,sterol fraction (%) Ergosta-7-enol,M. globosa [8],5.00%
same,"sterol fraction (%) Ergosta-8,22-dienol",M. globosa [8],5.35%
same,sterol fraction (%) Ergosta-8-enol,M. globosa [8],0%
same,sterol fraction (%) Ergosterol,M. globosa [8],54.64%
same,sterol fraction (%) Fecosterol,M. globosa [8],0.54%
same,sterol fraction (%) Obtusifoliol,M. globosa [8],3.52%
same,sterol fraction (%) Cholesterol,M. globosa [8]; cholesterol assimilated from growth media,1.21%
same,Kd,H. sapiens CYP51,0.731 µM
same,Kd,"M. globosa CYP51 [5]; azole titrated against 2 μM CYP51, Morrison equation",0.003 ± 0.001 µM
same,azole binding to CYP5218 (binding spectra),M. globosa CYP5218 [6],type II binding spectra
same,Kd,M. globosa CYP5218 [6]; azole titrated against 2 μM CYP5218,~12 µM and ~11.7 µM
same,IC50,"M. globosa CYP51 [7]; 0.5 μM CYP51, CYP51:AfCPR1 1:2, 50 μM lanosterol as substrate",0.321 ± 0.042 µM
CC[C@@H]([C@H](C)O)n1ncn(-c2ccc(N3CCN(c4ccc(OC[C@@H]5CO[C@@](Cn6cncn6)(c6ccc(F)cc6F)C5)cc4)CC3)cc2)c1=O [posaconazole],MIC values previously reported,M. globosa [4],0.06 µg/mL
